Reference: article PMC11239673, “Structural basis for the bi-specificity of USP25 and USP28 inhibitors” (EMBO Reports, 2024)
Positions count from the first letter of the chain named. Several values for one entry are separate records, joined by “and”; a condition that tells them apart may be missing. Equal entries are not always repeated. Where two headings read alike, the source gives them in different places.

Assays:
Format in all cases: biochemical
[1] = biological target: T1, USP28Δtip D265S (Homo sapiens, UniProt Q96RU2, D265S/INS458SGSG); test: Ub-Rho110 dose–response assay, USP28Δtip D265S; conditions: for IC50: USP28 - D265S
T1 sequence (Q96RU2 with tags, fused parts or gaps D265S/INS458SGSG): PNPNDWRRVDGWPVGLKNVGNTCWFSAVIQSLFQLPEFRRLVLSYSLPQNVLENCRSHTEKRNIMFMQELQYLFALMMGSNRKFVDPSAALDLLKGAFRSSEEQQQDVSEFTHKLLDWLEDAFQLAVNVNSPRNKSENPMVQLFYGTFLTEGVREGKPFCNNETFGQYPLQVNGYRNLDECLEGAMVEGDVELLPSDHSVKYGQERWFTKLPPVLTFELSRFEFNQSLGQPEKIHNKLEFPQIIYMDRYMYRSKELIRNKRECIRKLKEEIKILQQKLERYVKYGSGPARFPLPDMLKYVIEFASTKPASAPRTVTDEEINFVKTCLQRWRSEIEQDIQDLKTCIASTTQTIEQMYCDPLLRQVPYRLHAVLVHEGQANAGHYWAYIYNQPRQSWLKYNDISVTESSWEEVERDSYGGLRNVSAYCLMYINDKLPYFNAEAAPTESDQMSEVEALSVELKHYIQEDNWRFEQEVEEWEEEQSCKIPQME

[2] = biological target: T2, USP25Δtip L271F (Homo sapiens, UniProt Q9UHP3, DEL465-537/INS464GSGSGS/L271F); test: Ub-Rho110 dose–response assay, USP25Δtip L271F
T2 construct: 6xHis or thioredoxin-6xHis (N, cleaved yes); made in house; host or cells: E. coli BL21star (DE3)
T2 sequence (Q9UHP3 with tags, fused parts or gaps L271F/DEL465-477/P478G/DEL482-535/A536G/P537S limits assumed): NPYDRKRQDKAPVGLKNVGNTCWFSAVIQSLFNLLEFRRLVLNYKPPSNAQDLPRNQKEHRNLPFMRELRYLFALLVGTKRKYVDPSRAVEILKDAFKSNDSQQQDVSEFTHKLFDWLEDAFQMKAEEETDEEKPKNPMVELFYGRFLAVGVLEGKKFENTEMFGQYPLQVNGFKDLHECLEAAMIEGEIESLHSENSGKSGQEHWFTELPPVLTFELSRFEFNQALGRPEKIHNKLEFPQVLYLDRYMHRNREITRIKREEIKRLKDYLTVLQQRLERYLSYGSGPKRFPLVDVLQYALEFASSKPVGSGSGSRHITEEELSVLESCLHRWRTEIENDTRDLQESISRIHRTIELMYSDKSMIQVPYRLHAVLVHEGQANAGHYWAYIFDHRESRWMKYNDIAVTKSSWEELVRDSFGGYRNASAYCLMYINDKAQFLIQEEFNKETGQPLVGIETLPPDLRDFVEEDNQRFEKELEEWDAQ

[3] = biological target: T3, USP25Δtip Q322A (Homo sapiens, UniProt Q9UHP3, DEL465-537/INS464GSGSGS/Q322A); test: Ub-Rho110 dose–response assay, USP25Δtip Q322A
T3 construct: 6xHis or thioredoxin-6xHis (N, cleaved yes); made in house; host or cells: E. coli BL21star (DE3)
T3 sequence (Q9UHP3 with tags, fused parts or gaps Q322A/DEL465-477/P478G/DEL482-535/A536G/P537S limits assumed): T2 sequence (Q9UHP3 with tags, fused parts or gaps L271F/DEL465-477/P478G/DEL482-535/A536G/P537S limits assumed) with F115L, Q166A

[4] = biological target: T4, USP28Δtip L264F (Homo sapiens, UniProt Q96RU2, INS458SGSG/L264F); test: Ub-Rho110 dose–response assay, USP28Δtip L264F; conditions: for IC50: USP28 - L264F
T4 sequence (Q96RU2 with tags, fused parts or gaps L264F/INS458SGSG): T1 sequence (Q96RU2 with tags, fused parts or gaps D265S/INS458SGSG)

[5] = biological target: T5, USP25Δtip H268A (Homo sapiens, UniProt Q9UHP3, DEL465-537/H268A/INS464GSGSGS); test: Ub-Rho110 dose–response assay, USP25Δtip H268A
T5 construct: 6xHis or thioredoxin-6xHis (N, cleaved yes); made in house; host or cells: E. coli BL21star (DE3)
T5 sequence (Q9UHP3 with tags, fused parts or gaps H268A/DEL465-477/P478G/DEL482-535/A536G/P537S limits assumed): T2 sequence (Q9UHP3 with tags, fused parts or gaps L271F/DEL465-477/P478G/DEL482-535/A536G/P537S limits assumed) with H112A, F115L

[6] = biological target: T6, USP28Δtip WT (Homo sapiens, UniProt Q96RU2, INS458SGSG); test: Ub-Rho110 dose–response assay, USP28Δtip wt
T6 sequence (Q96RU2 with tags, fused parts or gaps INS458SGSG): T1 sequence (Q96RU2 with tags, fused parts or gaps D265S/INS458SGSG)

[7] = mean of replicates, read-out: IC50, mean and SD
[8] = single replicates, read-out: IC50 of each replicate curve (unlabelled line above mean and SD)
[9] = read-out: relative inhibition [%] - USP28 - D265S
[10] = read-out: relative inhibition [%] - USP28 - L264F
[11] = read-out: relative inhibition [%] - USP28 - WT

In the case of `Cc1ccc2c(N)c(C(=O)NC3CCc4cc(N5CC6CCC(C5)N6)ccc4C3)sc2n1` (centres unmarked) [FT206], the “t-test vs. USP28 WT control - D265S” value [1] is reported as 4.502E-03, the IC50 [1, 7] is reported as 0.31 µM and the IC50 [1, 8] is reported as 0.288 µM and 0.267 µM and 0.284 µM and 0.266 µM and 0.437 µM. For the same compound, the inhibition at 11.11 µM [1, 9] was 99.7%, the inhibition at 33.33 µM [1, 9] was 100% and the inhibition at 100 µM [1, 9] was 101%. The inhibition at […] [1, 9] was 97.8% and 94.4% and 33.5% and 30.9%, the “t-test vs. USP25 WT control - L271F” value ([2]; p value, inhibitor IC50 on USP25 L271F compared with USP25 WT) was 4.479E-03 and the inhibition at 11.11 µM ([2]; read-out: relative inhibition [%] - USP25 - L271F, inhibitor 11.11 µM, single replicates) was 90.1%. The inhibition at 33.33 µM ([2]; read-out: relative inhibition [%] - USP25 - L271F, inhibitor 33.33 µM, single replicates) was 95.6%, the inhibition at 100 µM ([2]; read-out: relative inhibition [%] - USP25 - L271F, inhibitor 100.00 µM, single replicates) was 100% and the inhibition at 100 µM ([3]; inhibitor 100.00 µM, single replicates, read-out: relative inhibition [%] - USP25 - Q322A) was 94%. For the same compound, the “t-test vs. USP25 WT control - Q322A” value ([3]; p value, inhibitor IC50 on USP25 Q322A compared with USP25 WT) was 8.787E-03, the inhibition at 11.11 µM ([3]; read-out: relative inhibition [%] - USP25 - Q322A, inhibitor 11.11 µM, single replicates) was 85.2% and the inhibition at 33.33 µM ([3]; read-out: relative inhibition [%] - USP25 - Q322A, inhibitor 33.33 µM, single replicates) was 88.7%. For the same compound, the “t-test vs. USP28 WT control - L264F” value [4] was 2.664E-04, the IC50 [4, 7] was 1.27 µM and the IC50 [4, 8] was 1.62 µM and 1.31 µM and 1.61 µM and 0.793 µM and 1.12 µM and 1.15 µM. The inhibition at 11.11 µM [4, 10] was 90.1%, the inhibition at 33.33 µM [4, 10] was 95.6% and the inhibition at 100 µM [4, 10] was 97.8%. For the same compound, the inhibition at […] [4, 10] was 74.2% and 44.5%, the “t-test vs. USP25 WT control - H268A” value ([5]; p value, inhibitor IC50 on USP25 H268A compared with USP25 WT) was 1.749E-05 and the inhibition at 11.11 µM ([5]; read-out: relative inhibition [%] - USP25 - H268A) was 29.7%. For the same compound, the inhibition at 33.33 µM ([5]; read-out: relative inhibition [%] - USP25 - H268A, inhibitor 33.33 µM, single replicates) was 55.5%, the inhibition at 100 µM ([5]; read-out: relative inhibition [%] - USP25 - H268A, inhibitor 100.00 µM, single replicates) was 78.2% and the IC50 ([6]; USP28 - WT, single replicates, read-out: IC50 of each replicate curve (unlabelled line above mean and SD)) was 0.184 µM and 0.209 µM and 0.213 µM and 0.0889 µM and 0.0911 µM and 0.101 µM. The IC50 ([6]; USP28Δtip 20 nM, Ub-Rho110 250 nM, 15 min preincubation, average ± SD, n ≥ 5, read-out: IC50, USP28 variants, WT) was 0.15 ± 0.06 µM, the inhibition at 11.11 µM [6, 11] was 98.6% and the inhibition at 33.33 µM [6, 11] was 99.3%. The inhibition at 100 µM [6, 11] was 99.6% and the inhibition at […] [6, 11] was 97.5% and 91.4% and 73.1%.
